Results reported in US20100310541A1, “Compositions and Methods for Reducing the Toxicity of Certain Toxins” (IRONWOOD PHARMACEUTICALS, INC., priority 2007, published 2010).
Entries after “also recorded” stand apart in the source; their conditions may differ.

Biological target: Escherichia coli heat stable enterotoxin (STa; SEQ ID NO: 1) (Escherichia coli, UniProt P07965)
Type: biochemical
Conditions: pH 8

O[C@H](CS)[C@H](O)CS (racemic) [DTT, dithiothreitol]
effect on SEQ ID NO:1 (LC/MS, FIG. 3): no visible effect | reduction of SEQ ID NO:1 disulfide bonds (FIG. 5): a small amount of fully reduced peptide; also recorded: complete reduction | reduction of native SEQ ID NO:1 based on peak area (FIG. 4): 47%
